Each structure is given as a SMILES string.

As for `O=C(c1nnn(Cc2cc(C(F)(F)F)cc(C(F)(F)F)c2)c1-n1ccnc1)c1c(CO)noc1-c1ccccc1Cl` [Example 269, [1-(3,5-bistrifluoromethylbenzyl)-5-imidazol-1-yl-1H-[1,2,3]triazol-4-yl]-[5-(2-chlorophenyl)-3-hydroxymethyl-isoxazol-4-yl]-methanone], the melting point was determined as 148.8 °C.

In the case of `CC(C)(O)c1onc(-c2ccccc2Cl)c1C(=O)c1nnn(Cc2cc(F)cc(C(F)(F)F)c2)c1-c1cccnc1` [Example 211, [3-(2-chloro-phenyl)-5-(1-hydroxy-1-methyl-ethyl)-isoxazol-4-yl]-[1-(3-fluoro-5-trifluoromethyl-benzyl)-5-pyridin-3-yl-1H-[1,2,3]triazol-4-yl]-methanone], the melting point amounted to 180 °C. Compound `CC(C)(O)c1onc(-c2ccccc2Cl)c1C(=O)c1nnn(Cc2cc(C(F)(F)F)cc(C(F)(F)F)c2)c1N1CCOCC1` [Example 73] showed a melting point of 188 °C. Consider `CC(O)c1onc(-c2ccccc2Cl)c1C(=O)c1nnn(Cc2cc(C(F)(F)F)cc(C(F)(F)F)c2)c1N1CCOCC1` (centres unmarked) [Example 81, [1-(3,5-bis-trifluoromethyl-benzyl)-5-morpholin-4-yl-1H-[1,2,3]triazol-4-yl]-[3-(2-chloro-phenyl)-5-(1-hydroxy-ethyl)-isoxazol-4-yl]-methanone], for which the melting point was 145 to 146 °C.

`CC(C)(O)c1onc(-c2ccccc2Cl)c1C(=O)c1nnn(Cc2cc(C(F)(F)F)cc(C(F)(F)F)c2)c1-c1cccnc1` [Example 79, [1-(3,5-bis-trifluoromethyl-benzyl)-5-pyridin-3-yl-1H-[1,2,3]triazol-4-yl]-[3-(2-chloro-phenyl)-5-(1-hydroxy-1-methyl-ethyl)-isoxazol-4-yl]-methanone] showed a melting point of 105 °C.

One may read the melting point as the temperature, or range, at which the solid turns liquid.

Values taken from patent US7179804B2, “Tachykinin receptor antagonists” (Eli Lilly and Company, priority 2002, dated 2007).
